Key:
[1] = test system: CYP27; assay: CYP27 expression in transfected macrophages with demethylation agent; format: cell-based, mouse; details: 0.5 μM, CMV promoter silenced by methylation
Experimental: Red, in D, is the mitochondrial marker dye, green in C, is CYP27.
Macrophages were cultured and transfected the same as for the CHOP cells in Example 1 except that after transfection, 0.5 μM 5-azacytidine was included in all further incubations. […] Panels A and B in FIG. 11 are actually transfected cells, but not treated with 5-azacytidine.

[2] = test system: CYP27; details: promoter studies; cited from earlier work

Structure (SMILES) | effect on CYP27 expression in transfected macrophages [1] | regulation of CYP27 expression [2]
Nc1ncn([C@@H]2O[C@H](CO)[C@@H](O)[C@H]2O)c(=O)n1 [5-azacytidine] | expressed CYP27 | 
C[C@H](CCC(=O)O)[C@H]1CC[C@H]2[C@@H]3[C@H](O)C[C@@H]4C[C@H](O)CC[C@]4(C)[C@H]3C[C@H](O)[C@]12C [cholic acid] |  | downregulated
